Experimental data as given in patent US20120115896A1, “ISOGENIC HUMAN CELL LINES COMPRISING MUTATED CANCER ALLELES AND PROCESS USING THE CELL LINES” (priority 2008, published 2012).

Key:
Type in all cases: cell-based, human
[1] = system: panel of cell lines derived from glioblastoma, breast, ovarian, prostate, endometrial and colorectal carcinomas carrying genetic alterations in PIK3CA or PTEN; assay: Antiproliferative effects of everolimus on a panel of cancer cell lines; conditions: FIG. 7A
Description: The present pharmacogenomic analysis of non-transformed cells carrying cancer alleles point to a relationship between the occurrence of PIK3CA mutations and sensitivity to everolimus. The present inventors next assessed whether and to what extent these findings might be applicable to human cancer cells in which mutations in the PIK3CA pathway naturally occur alongside with additional genetic alterations. To this end a panel of cell lines derived from glioblastoma, breast, ovarian, prostate, endometrial and colorectal carcinomas which are known to carry genetic alterations in PIK3CA or PTEN (FIG. 7) were treated with everolimus. […] Everolimus-resistant cells (such as HT-29, HCT 116 and DLD-1) carried mutations in both PIK3CA and KRAS/BRAF.

[2] = system: phosphorylation of p70S6K, RpS6, AKT and MAPK in hTERT-HME1 WT and KI cells; assay: Biochemical effects of everolimus: immunoblot and ELISA of phospho-proteins; conditions: for levels of phospho-MAPK: FIG. 16E
Protocol: (A, E) After 30 minutes' treatment with everolimus 500 nM, cells of the indicated genotype were lysed and immunoblotted with the anti-phospho-P70S6K, totalP70S6K, phospho-MAPK and total MAPK antibodies (B, C, D) The same lysates were also used for ELISA measurements of total AKT, phosphoAKT (Thr308), phosphoAKT (Ser473), total RpS6 and phosphoRpS6 levels. Numbers indicate the ratio of phosphorylated protein related to total protein levels and are normalized respect to the untreated (NT) hTERT-HME1 WT cells. DKI, Double Knock-In cells carrying both PIK3CA H1047R and KRAS G13D alleles.
SDS PAGE was performed using Invitrogen Precasted gels (Invitrogen Carlsbad, Calif.); western blotting transfer onto Hybond-C Extra membranes (Amersham, Amersham Biosciences, Uppsala, Sweden) was done following standard methods. The primary antibodies used for immunoblotting were: Anti-AKT (Cell Signaling, Technology, Danvers, Mass.); Anti-phospho-AKT S473 (Cell Signaling, Technology, Danvers, Mass.); Anti-Actin and Anti-Vinculin (Sigma-Aldrich, St. Louis, Mo.); Phospho-p44/42 Map kinase (Thr202/Tyr204) (Cell Signaling, Technology, Danvers, Mass.); Anti-phospho-EGFR Receptor (Tyr 1068) and Anti EGFR Receptor (Cell Signaling Technology, Danvers, Mass.).

[3] = system: HKe-3 (HCT116-derivative KRAS WT clone) cells; assay: Proliferation under everolimus (72 hours) of cells infected with control or KRASG13D lentivirus; conditions: KRAS G13D lentivirus, FIG. 17A
Protocol: (§1) Effect of everolimus (72 hours) on proliferation of HKe-3 (HCT116-derivative KRAS WT clone) (A) and ME-180 (B) cells infected with control or KRASG13D lentivirus.
(§2) The present inventors transduced HCT116-derivative clones that had only the KRAS WT allele (HKe-3), and the […] cancer cell line ME-180 (carrying PIK3CA E545K mutant and KRAS WT) with a lentiviral vector encoding for KRAS G13D cDNA.

[4] = system: ME-180 cells; assay: as above; conditions: KRAS G13D lentivirus, FIG. 17B
Protocol: as §1, §2

How did the “response of tumor cells with PIK3CA pathway alterations but no mutation in KRAS/BRAF” value [1] turn out when `CO[C@H]1C[C@@H]2CC[C@@H](C)[C@@](O)(O2)C(=O)C(=O)N2CCCC[C@H]2C(=O)O[C@H]([C@H](C)C[C@@H]2CC[C@@H](OCCO)[C@H](OC)C2)CC(=O)[C@H](C)/C=C(\C)[C@@H](O)[C@@H](OC)C(=O)[C@H](C)C[C@H](C)/C=C/C=C/C=C/1C` [everolimus, Everolimus] was run?
The value was “sensitive”.

What about the “response of tumor cells carrying mutations in both PIK3CA and KRAS/BRAF” value ([1]; such as HT-29, HCT 116 and DLD-1) of the same compound?
The value was “resistant”.

What about the “levels of phospho-MAPK” value ([2]; KRAS G13D mutated cells) of the same compound?
Its value is “decreased”.

What about the “levels of phospho-MAPK” value ([2]; WT cells and PIK3CA H1047R mutated cells) of the same compound?
Its value is “essentially unchanged”.

What about the phospho-AKT ([2]; all genotypes, everolimus 500 nM, 30 minutes, FIG. 16C, D) of the same compound?
The phospho-AKT was “increase”.

And the p70S6K phosphorylation ([2]; everolimus 500 nM, 30 minutes, FIG. 16A)?
Its p70S6K phosphorylation is “abrogated”.

And the “activated phospho-RpS6 levels” value ([2]; everolimus 500 nM, 30 minutes, FIG. 16B)?
Its value is “decrease”.

And the “response after (re-)introduction of mutated KRAS versus control vector” value [3]?
Its value is “decreased response to the antiproliferative effects”.

What about the “response after introduction of mutated KRAS versus control vector” value [4] of the same compound?
Its value is “decreased response to the antiproliferative effects”.
